Counter-ions that a name gives are not always drawn.
Assays:
[1] = Gravimetric loading of porous silicon p+ membrane with beneficial organic substance; assay type: physicochemical; details: for maximum w/w loading capacity: 63% porosity silicon matrix, from the density; for pore volume available occupied by the drug: liquid applied directly, 70° C. for 20 minutes; for w/w loading (weight gain after drug loading and washing) / pore volume available occupied by the drug, given as value/drug density: mesoporous p+ silicon membrane, porosity 63%; for w/w loading (weight gain after drug loading and washing): melt, heated solution or rotary evaporation loading
Procedure: The porous membranes were prepared and loaded with beneficial substance according to the following general method:—
A 3 inch diameter p+ wafer (5-15 milli ohm cm) was made mesoporous in a 50:50 by volume mixture of 40 wt % HF and ethanol by anodisation at 35 mA/cm^2 for 90 minutes. […] The membrane was then broken into flakes of weight in the range 10-60 mg for gravimetric and EDX studies of beneficial substance incorporation.
Loading was performed on two similar porous silicon (p+) membranes.
The pore volume available in the porous silicon membrane that can be occupied by the drug is calculated as follows: […]

[2] = HPLC analysis of drug extracted after incorporation into porous silicon; assay type: physicochemical
Procedure: Following incorporation into the membrane, chlorambucil was extracted and subjected to HPLC analysis. A known amount of the incorporated Chlorambucil/porous silicon (typically 10-15 mg, dependent on the level of incorporation) was placed into a volumetric flask and made up to a volume with 100 ml of ethanol, shaken and sonicated for 30 minutes at 30° C. From this stock solution 25 ml were transferred by pipette to a 100 ml volumetric flask to give the sample solution. Prior to analysis by HPLC the sample was filter through a 0.45 micron filter.
The chromatographic conditions used for this analysis were:—

[3] = aqueous environment; cited from earlier work
[4] = Mortality and survival of tumour-bearing nude mice in the chlorambucil study; assay type: in vivo; details: for mortality rate: without porous silicon
Procedure: The following protocol was adopted:— • 1. Culture of human cells and implantation of the tumour cells as solid tumours in nude mice: The carcinoma cell-line was cultured in RPMI and Ham's F-12 media respectively with 10% fetal calf serum in a CO2 incubator and subcultured every two to three days until growing to a number enough for implantation in animals. The cells were then implanted as solid tumors in nude mice]. The cells were collected in HBSS (balanced salt solution). One hundred microliters of cell suspension in HBSS (5×10^6 cells) was injected subcutaneously into right gluteal region of nude mice (female, 6 to 9 week old nude mice with average body weight of 25 g, housed in pathogen-free conditions) using a 25-gauge needle. • 2. Animals groups: Animals were randomly grouped into control 1 (injected with peanut oil), control 2 (injected with porous silicon without drug), free chlorambucil (drug injected without porous silicon directly into tumour or injected via intraperitoneal route) and chlorambucil impregnated porous silicon groups. Each group included 16 to 20 animals. • 3. Injection of chlorambucil impregnated porous silicon in transplanted tumours: On day 14 after implantation of tumours (diameter of the tumour about 1 cm), the chlorambucil impregnated formulation was applied to the centre of the tumours. • 4. Tumour volumetrics: The sizes of implanted tumours in nude mice was estimated every 3 days. The largest and smallest diameters were measured by a vernier caliper and tumour volumes estimated according the formula: V=1/2 ab^2, where a and b are largest and smallest tumour diameters respectively, and V is the tumour volume in cm^3.
The effects of intra-tumoural administered chlorambucil loaded porous silicon on the growth of the tumour was studied and compared with control and systemic therapy groups. The body weight of the animals was estimated by subtracting the tumour volume (cm3) from the total body weight (g) every 3 days. The survival time of each experimental animal was recorded.

[5] = 55% porous silicon, thin oxidised layers; cited from earlier work

| Compound | w/w loading (weight gain after drug loading and washing) [1] | pore volume available occupied by the drug, given as value/drug density [1] | other results |
| --- | --- | --- | --- |
| O=P1(N(CCCl)CCCl)NCCCO1 (centres unmarked) [Cyclophosohamide] | 44.4 % w/w | 104 /drug density % |  |
| CC1=CC(=O)c2c(O)cccc2C1=O [Plumbagin] | 34.68 % w/w | 98.50 /drug density % |  |
| CCN(CC)CCOC(=O)c1ccc(N)cc1 [Procaine] | 35.33 % w/w |  | loading w/v ([1]; EtOH:dH2O 1:1 solution, 110° C., 25 minutes): 71.38 % w/v |
| c1ccc([C@H]2CN3CCSC3=N2)cc1 [Levamisole HCl] | 32.93 % w/w | 64 /drug density % |  |
| CC(C)Cc1ccc(C(C)C(=O)O)cc1 (stereo not drawn) [S-(+)-Ibuprofen] | 40.67 % w/w |  |  |
| Cc1c(C)c2c(c(C)c1O)CC[C@@](C)(CCC[C@H](C)CCC[C@H](C)CCCC(C)C)O2 [Vitamin E, α-tocopherol] | 37 % w/w |  | maximum w/w loading capacity [1]: 41%; pore volume available occupied by the drug [1]: 88% |
| O=C(O)CCCc1ccc(N(CCCl)CCCl)cc1 [Chlorambucil] | 39.19 % w/w | 88.40 /drug density % | apparent activation energy for thermal degradation (Ea) [3]: 24.4 kcal/mol; degradation after incorporation into and release from porous silicon (HPLC) [2]: without significant degradation; mortality rate ([4]; 720 ug): 50%; mortality rate ([4]; 1500 ug (2×LD50), intratumour): 90%; LD50 ([4]; nude mice, dose per animal): 720 µg |
| albumin |  |  | volume percentage adsorbed [5]: 10.7% |

Continued, in another order:

| w/w loading (weight gain after drug loading and washing) [1] | pore volume available occupied by the drug, given as value/drug density [1] | Compound | other results |
| --- | --- | --- | --- |
| 36 % w/w |  | Vitamin K | maximum w/w loading capacity [1]: 42%; pore volume available occupied by the drug [1]: 80% |
| 16.71 % w/w |  | CC(=O)O[C@H]1C(=O)[C@@]2(C)[C@H]([C@H](OC(=O)c3ccccc3)[C@]3(O)C[C@H](OC(=O)[C@H](O)[C@@H](NC(=O)c4ccccc4)c4ccccc4)C(C)=C1C3(C)C)[C@]1(OC(C)=O)CO[C@@H]1C[C@@H]2O [Paclitaxel] | degradation after incorporation into and release from porous silicon (HPLC) [2]: without significant degradation |
| 35.07 % w/w | 74.07 /drug density % | CN(C)CCC=C1c2ccccc2CCc2ccccc21 [Amitriptyline HCl] |  |
| 19.81 % w/w |  | CC(=O)O[C@]1(C(C)=O)CC[C@H]2[C@@H]3C[C@H](C)C4=CC(=O)CC[C@]4(C)[C@H]3CC[C@@]21C [Medroxyprogesteron Acetate] |  |
| 37.54 % w/w | 78.53 /drug density % | CS(=O)(=O)OCCCCOS(C)(=O)=O [Busulfan] |  |
| 42.57 % w/w | 55.62 /drug density % | CCCCCCCCCCCC(=O)O [Lauric Acid] |  |

— patent publication US8088401B2, “Composite material comprising a porous semiconductor impregnated with an organic substance” (Psimedica Limited, priority 2003, dated 2012)
